Laboratory results as given in US20040071718A1, “Local nasal immunotherapy for allergen-induced airway inflammation” (priority 2002, published 2004).

Experiments:
Format in all cases: in vivo
[1] = test system: Balb/c mice; experiment: Dp2 specific IgG1, IgG2a and IgE in sera (ELISA) after LNIT; details: for Dp2 specific IgG1 production in the sera: Example 1, FIG. 2A; for Dp2 specific IgG1 production in the sera / Dp2 specific IgG2a production in the sera / Dp2 specific IgE production in the sera: compared with NS group; for Dp2 specific IgG2a production in the sera: Example 1, FIG. 2B; for Dp2 specific IgE production in the sera: Example 1, FIG. 2C
Method: Male Balb/c mice were obtained from the National Laboratory Breeding Research Center in Taiwan and were raised in a specific pathogen-free environment. The mice used were between six and eight weeks of age. Groups of six mice were caged separately according to their treatment. Recombinant Dermatophoides pteronyssinus group 2 (rDp2) was prepared as previously described(Tsai J J, et al. Int Arch Allergy Immunol 2000;121:205-10). Dp2 28-40 and Dp2 28-40A were obtained from Dr. Jonathan Lamb (Respiratory Medicine Unit, Edinburgh University, Medical School, Edinburgh, UK) (Verhoef A, and Lamb J R. J Immunol 2000;164:6034-6040). FIP was obtained from Dr. Ko Jiunn-Liang (Institute of Toxicology, Chung Shan Medical University, Taichung, R O C) (J L Ko, et al. Eur. J. Biochem. 1995;228:244-249).
(§1) Mice were immunized by way of an intraperitoneal (IP) injection of 1 μg/0.1 mL rDp2 emulsified in 4.0 mg/0.062mL aluminum hydroxide Al(OH)3 (Whitehall Lab Ltd. Punchbowl, NSW, Australia) on day 0 and day 7. Following immunization, local nasal immunotherapy (LNIT) was conducted daily from day 14 to day 35 with Dp2 28-40, Dp2 28-40A, FIP alone or FIP mixed with either Dp2 28-40 or Dp2 28-40A (FIP, 50 μg/mouse/day; Dp2 peptide, 1 μg/20 μL) in PBS with 10% glycerol. Normal saline (NS) and irrelevant allergen Bt were used as a negative control. […] On day 28, mice were lightly anesthetized with an IP injection of 60 mg/kg of sodium pentobarbital (Sigma Chemical Co., St Louis, Mo., U.S.A.) and inoculated intratracheally (IT) with 1 μg/50 μL of rDp 2 on day 28 and day 35. Two days subsequent to the second IT inoculation, the mice were sacrificed following the assessment of their pulmonary function (FIG. 1).
Blood was obtained from the retro-orbital venous plexus at the commencement and end of the experimental program. Serum IgE, IgG1 and IgG2a titers of anti-Dp2 antibodies were determined using an enzyme-linked immunosorbent assay (ELISA) technique. Microtiter plates (Nunc Lab, Ill., U.S.A.) were coated with 100 μL Dp2 overnight at a concentration of 0.5 μg/mL and left in a 4° C. refrigerator. Microtiter-plate nonspecific binding sites were blocked with 3% BSA in PBS for two hours at room temperature. Plates were washed with PBS-Tween-20 (PBST) three times and stored at −70° C. prior to subsequent use. Subsequent to the addition of a 1:5 dilution for IgE, a 1:100 dilution for IgG1 and a 1:5 dilution for IgG2a of mice serum, plates were incubated at 4° C. overnight, and then washed three times before the antibody (Horse radish peroxidase-conjugated goat anti-mouse IgE and IgG2a Ab 1:800, IgG1 Ab 1:2,000 Southern Biotech Assoc, Inc, Birmingham, Ala., U.S.A.) was added. Following a one-hour incubation at 37° C. and three washes with PBST, the enzyme substrate (2,2″-Azino-bis(3-ethylbenzothiazolin-6-sulfonic acid diammonium salt; Bio-Rad, USA) was added. The reaction was stopped using 50 μL 4N H2SO4 after the reaction had been allowed to continue for 15 minutes, following which the optical density was measured at 450nm using a multiscan spectrophotometer (model A-5682, SLT Lab Instruments, Salzburg, Austria). Results were expressed as ELISA units (EU), one EU being defined as the reciprocal value of the serum dilution that elicited an optical density of 1.0. Such a value was selected so as to always lie within the linear component of the dilution curve. To assure reproducibility, a known serum was included with each test as a standard.

[2] = test system: Balb/c mice; experiment: Pulmonary function: airway hypersensitivity to methacholine (Penh, barometric plethysmograph) after LNIT; details: compared to NS; for Penh after methacholine challenge, early phase: Example 1, FIG. 5A, 30 min after rDp2 IT challenge; for Penh after methacholine challenge, late phase: Example 1, FIG. 5B, 24hrs after rDp2 IT challenge
Method: as §1
Each mouse was placed inside a barometric plethysmograph (Buxco Electronics, Troy, N.Y.). The plethysmograph has two chambers: one is the main or animal chamber (ID 7.5 cm and 5.5 cm height) and the other is the reference chamber (ID 7.5 cm and 3.5 cm height). A differential pressure transducer was employed to detect the pressure difference between the two chambers. The pressure signal was amplified, digitized via an A/D convert card, and sent to a computer with a BioSystem XA program (Buxco, Electronics, Troy, N.Y.), which sampled and calculated the desired respiratory parameters. These parameters were enhanced pause (Penh), tidal volume, breathing frequency, peak inspiratory flow, peak expiratory flow, end-inspiratory pause, and end-expiratory pause.
Aerosol was generated by placing 5 mL of saline or methacholine (Sigma, 1.56 to 25.00 mg/mL) solution in the cup of an ultrasonic nebulizer (DeVilbiss, Somerset, Pa.). It was delivered via a connecting tube and a three-way connector to the animal chamber of the plethysmograph (Hamelmann E, et al. Am J Respir Crit Care Med. 1997;156:766-75). The median size of the aerosol was approximately 3 μm and the range of the sizes was from 1 to 5 μm, according to the manufacturers information. The aerosol usually filled the chamber within 15-20 sec. At first, each mouse inhaled saline aerosol for 3 min. Then the respiratory parameters were measured for 3 min. Then, inhalation of the saline aerosol was replaced by inhalation of the aerosol of methacholine solution for 3 min. In both cases, the aerosol in the chamber was cleared immediately after the exposure. Respiratory parameters were then measured for 3 min following the inhalation of methacholine. A dose-response curve for methacholine was calculated starting from a low dose of 0.031 mg/dL and moving to a higher dose of 25 mg/dL. There was a 15 min interval between exposures. The percentage changes of Penh obtained from each dose of mechacholine were accumulated area under the curve and the values were calculated as means±SEM. Differences in parameters among groups were analyzed by variance.

[3] = test system: Balb/c mice; experiment: Lung pathology (HE stain) after LNIT; details: lung tissue two days after IT with rDp2; for pathology: inflammatory cell infiltration and epithelium damage in the airway: Example 1, FIGS. 6A-6F
Excerpt: FIGS. 6A-6F are photographs showing the pathology of different groups of mice after LNIT. The lung tissues were obtained two days after IT with rDp2. […] (HE stain, ×400).
FIGS. 9A-1˜9F-2 are photographs showing the pathology of different groups of mice following LNIT. The lung tissues were obtained two days subsequent to IT inoculation with rDp2. FIGS. 9A-1, -2: naive mice; FIGS. 9B-1, -2: NS-treated mice; FIGS. 9C-1, -2: DEX-treated mice; FIGS. 9D-1, -2: FIP-fve treated mice; FIGS. 9E-1, -2: Dp2 28-40A+FIP-fve treated mice; and FIGS. 9F-1, -2: Dp2 28-40+FIP-fve treated mice. FIGS. 9A-1, 9B-1, 9C-1, 9D-1, 9E-1 and 9F-1: HE stain, 100×; 9A-2, 9B-2, 9C-2, 9D-2, 9E-2, 9F-2: HE stain, 400×
as §1

Molecule | Dp2 specific IgG1 production in the sera [1] | Dp2 specific IgG2a production in the sera [1] | Dp2 specific IgE production in the sera [1] | Penh after methacholine challenge, early phase [2] | Penh after methacholine challenge, late phase [2] | pathology: inflammatory cell infiltration and epithelium damage in the airway [3] | Dp2 specific IgG1 production in sera ([1]; Example 2, FIG. 7A, compared with NS) | Dp2 specific IgG2a production in sera ([1]; Example 2, FIG. 7B, compared with NS) | Dp2 specific IgE production in sera ([1]; Example 2, FIG. 7C, compared with NS) | penh, early phase ([2]; Example 2, FIG. 8A, 30 min after rDp2 intratracheal challenge) | penh, late phase ([2]; Example 2, FIG. 8B, 24 hr) | pathology: inflammatory-cell infiltration and epithelial damage in the airways ([3]; Example 2, FIGS. 9A-9F)
Dp2 28-40: Dermatophoides pteronyssinus group 2 (Dp2) epitope peptide, residues 28-40, amino acid sequence ID No. 1 (IIHRGKPFQLEAV; listed as Dermatophoides pteronyssinus) | significantly reduced | increased | reduction of IgE | significantly decreased | significantly decreased | reductions in airway inflammation |  |  |  |  |  | 
Dp2 28-40A: altered TCR ligand of Dp2 28-40, residues at positions 34 and 36 substituted by alanine; amino acid sequence ID No. 2 (IIHRGKAFALEAV; listed as Dermatophoides pteronyssinus) | significantly reduced | increased | reduction of IgE was observed only in the group of Dp2 28-40 | significantly decreased | significantly decreased | reductions in airway inflammation |  |  |  |  |  | 
FIP: fungal immunomodulatory protein isolated from Flammalina velutipes, amino acid sequence ID No. 3 (protein, Flammalina velutipes) SATSLTFQLAVLVKKIDFDYTPNWGRGTPSSYIDNLTFPKVLTDKKYSYRVVVNGSDLGVESNFAVTPSGGQTINFLQYNKGYGVADTKTIQVFVVIPDTGNSEEYIIAEWKKT |  |  |  |  |  |  | significantly reduced | significantly increased | significantly reduced | significantly decreased | did not reach a statistically significant level | reduction in the level of airway inflammation
